According to PubChem BioAssay (NCI):
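In this assay, cells in 96-well plates receive the compound at five concentrations for 48 hours. Endpoints are linearly interpolated between the surrounding concentrations. TGI denotes the concentration required for complete inhibition of growth.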

Columns and labels:
Experiment in all cases: NCI-60 cell line screen, 48 h
786-0 renal = system: 786-0 renal
ACHN renal = system: ACHN renal
MDA-MB-435 = system: MDA-MB-435
EKVX NSCLC = system: EKVX NSCLC
SK-OV-3 ovarian = system: SK-OV-3 ovarian
COLO 205 colon = system: COLO 205 colon
M14 melanoma = system: M14 melanoma
OVCAR-8 ovarian = system: OVCAR-8 ovarian
BT-549 breast = system: BT-549 breast
SF-268 CNS = system: SF-268 CNS
NCI-H23 lung = system: NCI-H23 lung
SN12C renal = system: SN12C renal
NCI/ADR-RES ovarian = system: NCI/ADR-RES ovarian
HCT-116 colon = system: HCT-116 colon
RXF 393 renal = system: RXF 393 renal
SK-MEL-2 melanoma = system: SK-MEL-2 melanoma
HOP-92 NSCLC = system: HOP-92 NSCLC
HOP-62 NSCLC = system: HOP-62 NSCLC
HCT-15 colon = system: HCT-15 colon
MCF7 breast = system: MCF7 breast
MALME-3M melanoma = system: MALME-3M melanoma
PC-3 prostate = system: PC-3 prostate
RPMI-8226 leukemia = system: RPMI-8226 leukemia
UACC-257 melanoma = system: UACC-257 melanoma
NCI-H460 lung = system: NCI-H460 lung
MOLT-4 leukemia = system: MOLT-4 leukemia
SF-295 CNS = system: SF-295 CNS
SNB-19 CNS = system: SNB-19 CNS
A549 NSCLC = system: A549 NSCLC
UACC-62 melanoma = system: UACC-62 melanoma
SK-MEL-5 melanoma = system: SK-MEL-5 melanoma
MDA-MB-231 breast = system: MDA-MB-231 breast
SF-539 CNS = system: SF-539 CNS
T-47D breast = system: T-47D breast
IGROV1 ovarian = system: IGROV1 ovarian
SNB-75 CNS = system: SNB-75 CNS
CAKI-1 renal = system: CAKI-1 renal
SW-620 colon = system: SW-620 colon
K-562 leukemia = system: K-562 leukemia
SK-MEL-28 melanoma = system: SK-MEL-28 melanoma
SR leukemia = system: SR leukemia
HT29 colon = system: HT29 colon
OVCAR-5 ovarian = system: OVCAR-5 ovarian
NCI-H522 lung = system: NCI-H522 lung
TK-10 renal = system: TK-10 renal
NCI-H226 lung = system: NCI-H226 lung
U251 CNS = system: U251 CNS
OVCAR-4 ovarian = system: OVCAR-4 ovarian
KM12 colon = system: KM12 colon
UO-31 renal = system: UO-31 renal
MDA-N = system: MDA-N
DU-145 prostate = system: DU-145 prostate
HS 578T breast = system: HS 578T breast
A498 renal = system: A498 renal
OVCAR-3 ovarian = system: OVCAR-3 ovarian
LOX IMVI melanoma = system: LOX IMVI melanoma
CCRF-CEM leukemia = system: CCRF-CEM leukemia
HCC-2998 colon = system: HCC-2998 colon
HL-60(TB) leukemia = system: HL-60(TB) leukemia

What does the source list for `CN(C)Cc1ccc(O)c(CN(C)C)n1`?
TGI (786-0 renal): > 100 µM; TGI (ACHN renal): > 100 µM; TGI (MDA-MB-435): > 100 µM; TGI (EKVX NSCLC): > 100 µM; TGI (SK-OV-3 ovarian): > 100 µM; TGI (COLO 205 colon): > 100 µM; TGI (M14 melanoma): > 100 µM; TGI (OVCAR-8 ovarian): > 100 µM; TGI (BT-549 breast): > 100 µM; TGI (SF-268 CNS): > 100 µM; TGI (NCI-H23 lung): > 100 µM; TGI (SN12C renal): > 100 µM; TGI (NCI/ADR-RES ovarian): > 100 µM; TGI (HCT-116 colon): > 100 µM; TGI (RXF 393 renal): > 100 µM; TGI (SK-MEL-2 melanoma): > 100 µM; TGI (HOP-92 NSCLC): > 100 µM; TGI (HOP-62 NSCLC): > 100 µM; TGI (HCT-15 colon): > 100 µM; TGI (MCF7 breast): > 100 µM; TGI (MALME-3M melanoma): > 100 µM; TGI (PC-3 prostate): > 100 µM; TGI (RPMI-8226 leukemia): > 100 µM; TGI (UACC-257 melanoma): > 100 µM; TGI (NCI-H460 lung): > 100 µM; TGI (MOLT-4 leukemia): > 100 µM; TGI (SF-295 CNS): > 100 µM; TGI (SNB-19 CNS): > 100 µM; TGI (A549 NSCLC): > 100 µM; TGI (UACC-62 melanoma): > 100 µM; TGI (SK-MEL-5 melanoma): > 100 µM; TGI (MDA-MB-231 breast): > 100 µM; TGI (SF-539 CNS): > 100 µM; TGI (T-47D breast): > 100 µM; TGI (IGROV1 ovarian): > 100 µM; TGI (SNB-75 CNS): > 100 µM; TGI (CAKI-1 renal): > 100 µM; TGI (SW-620 colon): > 100 µM; TGI (K-562 leukemia): > 100 µM; TGI (SK-MEL-28 melanoma): > 100 µM; TGI (SR leukemia): > 100 µM; TGI (HT29 colon): > 100 µM; TGI (OVCAR-5 ovarian): > 100 µM; TGI (NCI-H522 lung): > 100 µM; TGI (TK-10 renal): > 100 µM; TGI (NCI-H226 lung): > 100 µM; TGI (U251 CNS): > 100 µM; TGI (OVCAR-4 ovarian): > 100 µM; TGI (KM12 colon): > 100 µM; TGI (UO-31 renal): > 100 µM; TGI (MDA-N): > 100 µM; TGI (DU-145 prostate): > 100 µM; TGI (HS 578T breast): > 100 µM; TGI (A498 renal): > 100 µM; TGI (OVCAR-3 ovarian): > 100 µM; TGI (LOX IMVI melanoma): > 100 µM

For `COc1ccc(/C=N/NS(=O)(=O)c2ccc(/C=C3\NC(=O)NC3=O)cc2)cc1`, which TGI (786-0 renal) is on record?
Its TGI is over 100 µM.

And the TGI (ACHN renal)?
The TGI was over 100 µM.

What about the TGI (MDA-MB-435) of the same molecule?
The TGI was over 100 µM.

And the TGI (EKVX NSCLC)?
Its TGI is over 100 µM.

And the TGI (SK-OV-3 ovarian)?
Its TGI is over 100 µM.

What about the TGI (COLO 205 colon) of the same molecule?
Its TGI is over 100 µM.

What about the TGI (M14 melanoma) of the same molecule?
Its TGI is over 100 µM.

What about the TGI (OVCAR-8 ovarian) of the same molecule?
Its TGI is over 100 µM.

And the TGI (BT-549 breast)?
Its TGI is over 100 µM.

And the TGI (SF-268 CNS)?
Its TGI is 86.9 µM.

And the TGI (CCRF-CEM leukemia)?
Its TGI is over 100 µM.

What about the TGI (NCI-H23 lung) of the same molecule?
Its TGI is over 100 µM.

What about the TGI (SN12C renal) of the same molecule?
The TGI was over 100 µM.

And the TGI (NCI/ADR-RES ovarian)?
The TGI was over 100 µM.

What about the TGI (HCT-116 colon) of the same molecule?
The TGI was over 100 µM.

And the TGI (RXF 393 renal)?
Its TGI is over 100 µM.

And the TGI (SK-MEL-2 melanoma)?
Its TGI is over 100 µM.

And the TGI (HOP-92 NSCLC)?
The TGI was over 100 µM.

And the TGI (HOP-62 NSCLC)?
The TGI was over 100 µM.

And the TGI (HCT-15 colon)?
The TGI was over 100 µM.

And the TGI (MCF7 breast)?
Its TGI is over 100 µM.

What about the TGI (MALME-3M melanoma) of the same molecule?
The TGI was over 100 µM.

And the TGI (PC-3 prostate)?
Its TGI is over 100 µM.

What about the TGI (RPMI-8226 leukemia) of the same molecule?
Its TGI is over 100 µM.

And the TGI (UACC-257 melanoma)?
The TGI was over 100 µM.

And the TGI (NCI-H460 lung)?
Its TGI is over 100 µM.

And the TGI (MOLT-4 leukemia)?
Its TGI is over 100 µM.

And the TGI (SF-295 CNS)?
Its TGI is over 100 µM.

And the TGI (SNB-19 CNS)?
Its TGI is over 100 µM.

And the TGI (HCC-2998 colon)?
Its TGI is over 100 µM.

What about the TGI (A549 NSCLC) of the same molecule?
Its TGI is over 100 µM.

What about the TGI (UACC-62 melanoma) of the same molecule?
The TGI was over 100 µM.

What about the TGI (SK-MEL-5 melanoma) of the same molecule?
The TGI was over 100 µM.

And the TGI (MDA-MB-231 breast)?
The TGI was over 100 µM.

And the TGI (HL-60(TB) leukemia)?
The TGI was over 100 µM.

And the TGI (T-47D breast)?
Its TGI is over 100 µM.

What about the TGI (IGROV1 ovarian) of the same molecule?
Its TGI is over 100 µM.

What about the TGI (SNB-75 CNS) of the same molecule?
Its TGI is 77.9 µM.

What about the TGI (CAKI-1 renal) of the same molecule?
The TGI was over 100 µM.

And the TGI (SW-620 colon)?
Its TGI is over 100 µM.

And the TGI (K-562 leukemia)?
The TGI was over 100 µM.

What about the TGI (SK-MEL-28 melanoma) of the same molecule?
Its TGI is over 100 µM.

What about the TGI (HT29 colon) of the same molecule?
The TGI was over 100 µM.

And the TGI (OVCAR-5 ovarian)?
Its TGI is over 100 µM.

What about the TGI (TK-10 renal) of the same molecule?
The TGI was over 100 µM.

What about the TGI (NCI-H226 lung) of the same molecule?
Its TGI is over 100 µM.

What about the TGI (U251 CNS) of the same molecule?
The TGI was over 100 µM.

What about the TGI (OVCAR-4 ovarian) of the same molecule?
Its TGI is over 100 µM.

What about the TGI (KM12 colon) of the same molecule?
Its TGI is over 100 µM.

What about the TGI (UO-31 renal) of the same molecule?
The TGI was over 100 µM.

What about the TGI (MDA-N) of the same molecule?
The TGI was over 100 µM.

And the TGI (DU-145 prostate)?
The TGI was over 100 µM.

What about the TGI (HS 578T breast) of the same molecule?
The TGI was over 100 µM.

And the TGI (A498 renal)?
The TGI was over 100 µM.

And the TGI (OVCAR-3 ovarian)?
The TGI was over 100 µM.

What about the TGI (LOX IMVI melanoma) of the same molecule?
The TGI was over 100 µM.
